Legend:
Format in all cases: in vivo
[1] = tested on: Echinochloa crus-galli (ECHCG); experiment: greenhouse post-emergence herbicidal efficacy against ECHCG
Protocol: (§1) All trials whose results are shown were conducted in a greenhouse by the methodology specified below. The effect of the inventive herbicidal compositions was examined on the following harmful plants 14 and 21 days after application:
(§2) Echinochloa crus-galli (ECHCG), Eleusine indica (ELEIN), Setaria viridis (SETVI), Amaranthus retroflexus (AMARE), Chenopodium album (CHEAL), Kochia scoparia (KCHSC), Solanum nigrum (SOLNI), Avena fatua (AVEFA), Bromus sterilis (BROST), Lolium multiflorum (LOLMU), Phalaris minor (PHAMI), Poa annua (POAAN), Galium aparine (GALAP), Matricaria inodora (MATIN) and Polygonum convolvulus (POLCO).
(§3) The harmful plant seeds were sown in pots (diameter 8 cm) with sandy loam soil and germinated under optimal conditions. The inventive herbicidal compositions or the active ingredients alone were applied post-emergence to the planted pots with a spray volume of 300 L/ha. The trial was conducted in a greenhouse under optimum growth conditions. The herbicidal effects were assessed visually by comparison of untreated and treated plants. The percentages mean: 0%=no effects, 100%=the plants die off completely). The percentages are used to calculate interactions between individual treatments and combination treatments according to S. R. Colby, Weeds 15, pages 20 to 22 (1967).
(§4) The abbreviations mean: • a.i.=active ingredient • E^C=expected value according to Colby (E^C=A+B−A×B/100) • Diff: =difference (%) of measured value from expected value (%) (measured value minus expected value)
(§5) Assessment: • measured value E is greater than E^C:->synergism (+ diff.) • measured value E equals E^C:->additive effect • measured value E is smaller than E^C:->antagonism(− diff.)

Eleusine indica (ELEIN) = experiment: greenhouse post-emergence herbicidal efficacy against ELEIN; conditions: for pest or weed control at […] / pest or weed control at 10 g/ha: Eleusine indica, post-emergence; for pest or weed control at […]: 2.5 g of a.i./ha; for pest or weed control at 10 g/ha: 10 g of a.i./ha
Protocol: as §1, §2, §3, §4, §5

Setaria viridis (SETVI) = experiment: greenhouse post-emergence herbicidal efficacy against SETVI
Protocol: as §1, §2, §3, §4, §5

[2] = tested on: Amaranthus retroflexus (AMARE); experiment: greenhouse post-emergence herbicidal efficacy against AMARE
Protocol: as §1, §2, §3, §4, §5

Solanum nigrum (SOLNI) = experiment: greenhouse post-emergence herbicidal efficacy against SOLNI
Protocol: as §1, §2, §3, §4, §5

Avena fatua (AVEFA) = experiment: greenhouse post-emergence herbicidal efficacy against AVEFA
In short: (§6)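 In the greenhouse, herbicidal compositions and their individual active ingredients are applied post-emergence at 300 L/ha. Damage is scored by eye against untreated controls on a 0–100% scale at 14 and 21 days.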

Bromus sterilis (BROST) = experiment: greenhouse post-emergence herbicidal efficacy against BROST
In short: as §6

[3] = tested on: Lolium multiflorum (LOLMU); experiment: greenhouse post-emergence herbicidal efficacy against LOLMU
In short: as §6

Phalaris minor (PHAMI) = experiment: greenhouse post-emergence herbicidal efficacy against PHAMI
In short: as §6

Poa annua (POAAN) = experiment: greenhouse post-emergence herbicidal efficacy against POAAN
In short: as §6

Galium aparine (GALAP) = experiment: greenhouse post-emergence herbicidal efficacy against GALAP
In short: as §6

[4] = tested on: Matricaria inodora (MATIN); experiment: greenhouse post-emergence herbicidal efficacy against MATIN; conditions: 21 days after application
In short: as §6

DIGSA = experiment: greenhouse post-emergence herbicidal efficacy against DIGSA
Protocol: as §1, §3, §4, §5

[5] = 14 days after application, 1 g of a.i./ha
[6] = 14 days after application, 4 g of a.i./ha
[7] = 21 days after application, 4 g of a.i./ha
[8] = 21 days after application, 1 g of a.i./ha
[9] = 14 days after application, g of a.i./ha: A1-60 2.5, isoproturon 400
[10] = 14 days after application, g of a.i./ha: A1-60 10, isoproturon 400
[11] = 14 days after application, g of a.i./ha: A1-60 10, isoproturon 1600
[12] = 21 days after application, g of a.i./ha: A1-60 2.5, isoproturon 400
[13] = 21 days after application, g of a.i./ha: A1-60 10, isoproturon 400
[14] = 21 days after application, g of a.i./ha: A1-60 10, isoproturon 1600
[15] = 14 days after application, g of a.i./ha: A1-60 2.5, isoproturon 1600
[16] = 14 days after application, 10 g of a.i./ha
[17] = 21 days after application, 2.5 g of a.i./ha
[18] = 21 days after application, 10 g of a.i./ha
[19] = 336 h, 14 days after application
[20] = 504 h, 21 days after application

Cc1nnc(NC(=O)c2ccc(C(F)(F)F)c([S+](C)[O-])c2C)o1 (stereo not drawn) [A1-60]
60%: Efficacy [2, 7]
65%: Efficacy [1, 5] | Efficacy (Solanum nigrum (SOLNI); [5]) | Efficacy (Solanum nigrum (SOLNI); [6])
15%: Efficacy (Bromus sterilis (BROST); [10]) | Efficacy (Bromus sterilis (BROST); [11])
10%: Efficacy (Phalaris minor (PHAMI); [9]) | Efficacy (Poa annua (POAAN); [10]) | Efficacy (Poa annua (POAAN); [11])
40%: Efficacy [1, 8] | Efficacy (Eleusine indica (ELEIN); [8]) | Efficacy ([4]; g of a.i./ha: A1-60 10, isoproturon 400)
75%: Efficacy [1, 7] | Efficacy (Eleusine indica (ELEIN); [7])
3%: Efficacy [3, 13] | Efficacy [3, 14]
93%: Efficacy (DIGSA; [6])
85%: Efficacy (Setaria viridis (SETVI); [6])
50%: Efficacy (Setaria viridis (SETVI); [8])
20%: Efficacy [2, 8] | Efficacy (Solanum nigrum (SOLNI); [8]) | Efficacy (Phalaris minor (PHAMI); [13]) | Efficacy (Poa annua (POAAN); [13])
30%: Efficacy (Solanum nigrum (SOLNI); [7]) | Efficacy (Galium aparine (GALAP); [10]) | Efficacy (Galium aparine (GALAP); [11])
25%: Efficacy (Phalaris minor (PHAMI); [10]) | Efficacy (Phalaris minor (PHAMI); [11]) | Efficacy (Galium aparine (GALAP); [9]) | Efficacy (Galium aparine (GALAP); [15])
5%: Efficacy (Avena fatua (AVEFA); [13]) | Efficacy (Avena fatua (AVEFA); [14]) | Efficacy (Bromus sterilis (BROST); [13]) | Efficacy (Bromus sterilis (BROST); [14])
70%: Efficacy (Eleusine indica (ELEIN); [5]) | Efficacy (Setaria viridis (SETVI); [5]) | Efficacy (Setaria viridis (SETVI); [7]) | Efficacy [2, 6] | Efficacy (DIGSA; [7])
0%: Efficacy (Avena fatua (AVEFA); [9]) | Efficacy (Avena fatua (AVEFA); [10]) | Efficacy (Avena fatua (AVEFA); [11]) | Efficacy (Avena fatua (AVEFA); [12]) | Efficacy (Bromus sterilis (BROST); [9]) | Efficacy (Bromus sterilis (BROST); [15]) | Efficacy [3, 9] | Efficacy [3, 15] | Efficacy [3, 10] | Efficacy [3, 11] | Efficacy (Phalaris minor (PHAMI); [12]) | Efficacy (Poa annua (POAAN); [15]) | Efficacy (Galium aparine (GALAP); [12]) | Efficacy (Galium aparine (GALAP); 21 days after application, g of a.i./ha: A1-60 2.5, isoproturon 1600) | Efficacy (Galium aparine (GALAP); [13]) | Efficacy (Galium aparine (GALAP); [14]) | Efficacy ([4]; g of a.i./ha: A1-60 2.5, isoproturon 400)
90%: Efficacy [1, 6] | Efficacy (Eleusine indica (ELEIN); [6])

CS(=O)(=O)c1cc(C(F)(F)F)ccc1C(=O)c1cnoc1C1CC1 [isoxaflutole]
60%: Efficacy [1, 16] | Efficacy [1, 18] | pest or weed control at 10 g/ha (Eleusine indica (ELEIN); [19])
40%: Efficacy [2, 17]
0%: pest or weed control at […] (Eleusine indica (ELEIN); [20]) | Efficacy (Setaria viridis (SETVI); [17]) | Efficacy (Setaria viridis (SETVI); [18]) | Efficacy (DIGSA; [18])
20%: pest or weed control at […] (Eleusine indica (ELEIN); [19]) | pest or weed control at 10 g/ha (Eleusine indica (ELEIN); [20])
10%: Efficacy ([1]; 14 days after application, 2.5 g of a.i./ha) | Efficacy [1, 17] | Efficacy (DIGSA; [16])
65%: Efficacy (Solanum nigrum (SOLNI); [18])

Reference: US10111435B2, “Herbicidal compositions containing N-(1,3,4-oxadiazol-2-yl)-aryl carboxylic acid amides” (BAYER CROPSCIENCE AKTIENGESELLSCHAFT, priority 2013, dated 2018)
